In PMC9061999, “Application of the Adverse Outcome Pathway Concept to In Vitro Nephrotoxicity Assessment: Kidney Injury due to Receptor-Mediated Endocytosis and Lysosomal Overload as a Case Study” (Frontiers in Toxicology, 2022):

What was measured:
RPTEC/TERT1 cells = assay: Cathepsin D immunofluorescence (KE2, disruption of lysosomes); assay type: cell-based, human
Procedure: For immunocytochemistry experiments, cells were seeded into 8-well chamber slides (Ibidi) at a density of 140 cells per µL in 300 µL growth medium and were allowed to grow for 48 h (NRK-52E) or 10 d (RPTEC/TERT1) respectively. For treatment, stock solutions (1,000 µM) of compounds dissolved in growth medium were freshly prepared and serial dilutions were made before exposure of cells for 24 h. After treatment, cells were washed twice with 150 µL PBS and fixed with 150 µL 4% paraformaldehyde in 1 x PBS for 10 min at room temperature. […]
After incubation with primary antibody, cells were washed three times for 15 min with 0.2% Tween in 1 x PBS (150 µL) on an orbital shaker. […] To preserve fluorescence 50–100 µL DAPI mounting medium (Vectashield®; Vectorlab, Biozol) was added to the cells and chamber slides were stored at 4°C in the dark until image acquisition.
Images were taken with a TCS SP5 II confocal microscope with an HCX PL APO lambda blue 63.0 × 1.40 OIL UV objective (Leica Microsystems, Wetzlar, GER) (n = 10 cells/treatment group). […] Before quantification, images were blinded and randomized. Quantification of fluorescence intensity was performed using NIH Image® software. […] The mean values of the pixel intensities were automatically calculated by the software and imported in Excel for further processing.

[1] = tested on: RPTEC/TERT1 and NRK-52E cells; assay: In vitro key event assays (LAMP-1/2, cathepsin D, cell viability) compared across both cell models; assay type: cell-based, human and rat
Procedure: Cells were plated into 96-well tissue culture plates (10,000 cells per well) and were allowed to grow for 48 h (NRK-52E) respectively 10 d (RPTEC/TERT1) prior to 24 h treatment with model stressors. Stock solution for each compound (2000 µM) was prepared in growth medium and serial dilutions (1:1) were made before each experiment. At the end of the 24 h treatment, cell viability was measured using the CellTiter-Glo® assay (Promega). CellTiter-Glo® reagents and buffer were mixed under light-protected conditions and 100 µL CellTiter-Glo® solution was added directly to each well followed by 2 min incubation on an orbital shaker and 10 min incubation at room temperature in the dark to stabilize the luminescence signal. The suspension was mixed via pipetting and 50 µL were transferred into white 96-well plates (PerkinElmer Inc.). The luminescence signal was measured on a multiplate reader (Mithras LB 940; Berthold). Each assay was performed in three independent experiments carried out in triplicates.
For immunocytochemistry experiments, cells were seeded into 8-well chamber slides (Ibidi) at a density of 140 cells per µL in 300 µL growth medium and were allowed to grow for 48 h (NRK-52E) or 10 d (RPTEC/TERT1) respectively. For treatment, stock solutions (1,000 µM) of compounds dissolved in growth medium were freshly prepared and serial dilutions were made before exposure of cells for 24 h. After treatment, cells were washed twice with 150 µL PBS and fixed with 150 µL 4% paraformaldehyde in 1 x PBS for 10 min at room temperature. After fixation, cells were washed 10 min with 150 µL PBS on an orbital shaker followed by permeabilization with 150 µL 0.2% Triton X-100 in 1 x PBS for 5 min at room temperature on an orbital shaker. The permeabilized cells were washed twice with 1 x PBS (150 µL) for 10 min at room temperature on an orbital shaker and then incubated with 150 µL 5% BSA dissolved in 1 x PBS for 1 h at room temperature to block unspecific binding sites. After blocking, 100 µL primary antibody diluted 1:100 in 1% BSA in 1 x PBS were directly pipetted onto the cells and incubated overnight at 4°C. The following antibodies were employed for NRK-52E cells: Anti-LAMP-1 monoclonal IgG1 kappa mouse antibody (Santa Cruz; sc-20011), anti-Cathepsin D mouse monoclonal IgG2 kappa antibody (Santa Cruz; sc-377124); for RPTEC/TERT1 cells: Anti-LAMP-2 monoclonal mouse antibody (Santa Cruz; sc-18822), anti-Cathepsin D mouse monoclonal IgG2b kappa (Novus Biologicals; NBP1-04278); for both cell lines anti-megalin mouse monoclonal IgG1 antibody (Santa Cruz, sc-515772).
After incubation with primary antibody, cells were washed three times for 15 min with 0.2% Tween in 1 x PBS (150 µL) on an orbital shaker. Cells were incubated for 1 h at room temperature with 100 µL CFL 488-conjugated mouse IgG kappa binding protein (1:50) (m-IgGκ BP-CFL 488; Santa Cruz, sc-516176). After incubation the cells were washed three times for 15 min with 0.2% Tween in 1 x PBS on an orbital shaker and once with 150 µL sterile water. Phalloidin-tetramethylrhodamine B isothiocyanate (TRITC) was used to stain the cytoskeleton and was diluted in 100% methanol to a stock concentration of 0.1 mg/ml and further diluted in 1 x PBS to a working concentration of 0.095 µM. After cells were washed once with 1 x PBS for 10 min at room temperature 150 µL phalloidin-TRITC working solution was added and the cells were incubated on an orbital shaker at room temperature for 60–90 min. After incubation, phalloidin-TRITC solution was aspirated, and the cells were washed once with 1 x PBS. Chamber slides were allowed to dry for 15 min at room temperature. To preserve fluorescence 50–100 µL DAPI mounting medium (Vectashield®; Vectorlab, Biozol) was added to the cells and chamber slides were stored at 4°C in the dark until image acquisition. […]

In the case of Polymyxin B, the “BMC10, KE2” value (RPTEC/TERT1 cells; in vitro POD from KE dose-response, cathepsin D intensity, RPTEC/TERT1, 24 h treatment, n = 3) is reported as 6.8 µM, the “MOE, KE2” value (RPTEC/TERT1 cells; margin of exposure: BMC10 in RPTEC/TERT1 vs human plasma/serum concentration (cmax or css)) is reported as 1.7 - 11.9 and the “Cytotoxicity compared between RPTEC/TERT1 and NRK-52E cells” value ([1]; 24 h treatment, cell viability) is reported as “RPTEC/TERT1 cells were found to be significantly more sensitive”. The “Rank order of effects of the 3 polymyxin derivatives across all KEs” value ([1]; RPTEC/TERT1 and NRK-52E, 24 h) was “most active”, the “Effect on cathepsin D fluorescence intensity (KE2)” value ([1]; RPTEC/TERT1 and NRK-52E, 24 h, immunocytochemistry, quantitative image analysis) was “concentration-dependent decrease in fluorescence intensity” and the “Effect on LAMP-1/2 expression (KE1)” value ([1]; RPTEC/TERT1 and NRK-52E, 24 h, immunofluorescence image analysis) was “significant, concentration-dependent increase in LAMP-1/2 expression”. For the same substance, the “Effect on cell viability / cytotoxicity (KE3)” value ([1]; RPTEC/TERT1 and NRK-52E, 24 h treatment, CellTiter-Glo) was “concentration-dependent decrease in cell viability”.
